Values of other authors, collected in patent publication US20100152180A1, “4-oxo-4,5-dihydropyrrolo[1,2-A)quinoxaline derivatives as inhibitors of poly(ADP-ribose) polymerase (PARP)” (priority 2006, published 2010).

Tested on: ischemia and reperfusion of the heart or skeletal muscle
Settings: rabbits

| SMILES | reduction in infarct size (single injection 1 mg/kg) | reduction in infarct size in the heart (single injection 10 mg/kg, one minute before occlusion or one minute before reperfusion) |
| --- | --- | --- |
| Oc1cccc2c(O)nccc12 [1,5-dihydroxyisoquinoline] | 38-48% |  |
| NC(=O)c1cccc(N)c1 [3-amino-benzamide] |  | 32-42% |
